Experimental data taken from ChEMBL document CHEMBL3987221, “The Australian National University Dept Of Immunology Pathogen Box Compounds Screened” (2018).
Calls of active or inactive are those of the source. The rule behind the calls is not given here.

What was measured:
[1] = target: T1, Porphobilinogen deaminase (Homo sapiens) (UniProt P08397); settings: at 100 µM
T1 sequence (whole entry): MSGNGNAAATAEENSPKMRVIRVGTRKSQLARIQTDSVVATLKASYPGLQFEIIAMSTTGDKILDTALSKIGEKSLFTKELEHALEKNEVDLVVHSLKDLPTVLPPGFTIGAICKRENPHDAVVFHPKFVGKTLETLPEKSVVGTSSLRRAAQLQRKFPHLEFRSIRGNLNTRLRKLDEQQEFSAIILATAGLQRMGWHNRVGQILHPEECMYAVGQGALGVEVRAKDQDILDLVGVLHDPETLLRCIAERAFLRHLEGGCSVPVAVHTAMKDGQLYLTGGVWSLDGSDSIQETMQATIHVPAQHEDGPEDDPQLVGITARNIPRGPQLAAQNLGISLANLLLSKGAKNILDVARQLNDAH
Description: Compound was evaluated for the inhibition of human HMBS at 100uM

[2] = target: T2, Ferrochelatase, mitochondrial (Homo sapiens) (UniProt P22830); settings: at 10 µM
T2 sequence (whole entry): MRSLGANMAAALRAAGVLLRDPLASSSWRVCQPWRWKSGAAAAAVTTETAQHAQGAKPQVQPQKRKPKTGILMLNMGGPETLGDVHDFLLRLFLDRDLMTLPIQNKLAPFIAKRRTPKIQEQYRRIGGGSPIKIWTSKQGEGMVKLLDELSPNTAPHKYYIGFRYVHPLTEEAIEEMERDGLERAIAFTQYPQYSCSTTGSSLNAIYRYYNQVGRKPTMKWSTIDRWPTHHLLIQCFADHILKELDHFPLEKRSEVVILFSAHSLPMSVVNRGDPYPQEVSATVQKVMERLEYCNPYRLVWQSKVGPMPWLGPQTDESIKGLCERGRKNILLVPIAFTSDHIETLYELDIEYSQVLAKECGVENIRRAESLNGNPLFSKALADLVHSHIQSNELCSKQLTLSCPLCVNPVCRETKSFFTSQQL
Description: Compound was evaluated for the inhibition of human FECH at 10uM

Compound	inhibition [1]	inhibition [2]
CC(=O)N1CCc2cc3nc(C)cc(C)c3cc21	inactive	inactive
OCCc1ccc(Nc2nccc(-c3nnc4ccccn34)n2)cc1	inactive	inactive
CCOC(=O)c1c(NC(=O)c2c(F)c(F)c(F)c(F)c2F)sc(C(N)=O)c1C	inactive	inactive
Cc1ccccc1C(=O)N1N=C(Nc2ccccc2)SC1(C)C	inactive	inactive
CC(C)(C)C(=O)N(CCCCCCN1C[C@H](O)[C@@H](O)[C@H](O)[C@H]1CO)C1CCCCCC1	inactive	inactive
CNC(=O)C1Cc2c([nH]c3cc(Cl)ccc23)C2(CCN(CCc3ccccc3)CC2)N1 (centres undefined)	inactive	inactive
CCCCS(=O)(=O)Nc1ccc2cnn(C)c2c1	inactive	inactive
O=C1O[C@@H](COc2ccon2)CN1c1cc(F)c(C2=CCN(Cc3ccccc3)CC2)c(F)c1	inactive	inactive
CC(C)(C)c1ccc(N[C@@H]2CCCC[C@H]2NC(=O)c2ccco2)cc1	inactive	inactive
Oc1c(I)cc(I)c2cccnc12	inactive	inactive
CCCCCCCCCCCCCCCCOP(=O)([O-])OCC[N+](C)(C)C	inactive	inactive
O=C(N[C@H](Cc1ccccc1)C(=O)Nc1ccccc1N1CCOCC1)c1cccs1	inactive	inactive
C[C@H]1c2cccc(O)c2C(=O)C2=C(O)[C@]3(O)C(=O)C(C(N)=O)=C(O)[C@@H](N(C)C)[C@@H]3[C@@H](O)[C@@H]21	inactive	inactive
O=C(Nc1nc(-c2ccccn2)cs1)c1cncn1-c1ccccc1	inactive	inactive
O=C(C1CCN(c2cc(-n3cccc3)ncn2)CC1)N1CCc2ccccc2C1	inactive	inactive
O=C(C1CCCCC1)N1CC(=O)N2CCc3ccccc3C2C1 (centres undefined)	inactive	inactive

Compound	inhibition [1]	inhibition [2]
CC1COC(Cn2cncn2)(c2ccc(Oc3ccc(Cl)cc3)cc2Cl)O1 (centres undefined)	inactive	inactive
O=C(Cn1ccnc1[N+](=O)[O-])NCc1ccccc1	inactive	inactive
NC(CC(=O)c1ccc(Cl)cc1Cl)C(Cl)(Cl)Cl (centres undefined)	inactive	inactive
CC[C@H](CO)NCCN[C@H](CC)CO	inactive	inactive
O=C1N(Cc2cc3ccccc3s2)CC2CN(Cc3ccccc3)CCN12 (centres undefined)	inactive	inactive
FC(F)(F)c1cnc(Sc2nnc(-c3ccncc3)o2)c(Cl)c1	inactive	inactive
CC(=O)N(CCN(C(=O)c1ccc(F)cc1)c1ccccc1)c1ccccc1	inactive	inactive
CNC(=O)c1nn(C)c2c1C(C)(C)Cc1cnc(Nc3ccc(N4CCN(C)CC4)cc3)nc1-2	inactive	inactive
O=C(NC1CCCCC1)N1CCN(Cc2ccc3c(c2)OCO3)CC1	inactive	inactive
CS(=O)(=O)Cc1nc2ccccc2oc1=O	inactive	inactive
CC1COC2(CCN(c3nc(=O)c4cc(C(F)(F)F)cc([N+](=O)[O-])c4s3)CC2)O1 (centres undefined)	inactive	inactive
Cn1c(=O)c2c(S(C)(=O)=O)snc2n(C)c1=O	inactive	inactive
Cc1cc(C2=NOC(c3cc(Cl)c(F)c(Cl)c3)(C(F)(F)F)C2)ccc1C(=O)NCc1ccc2c(c1)C(C)(C)OB2O (centres undefined)	inactive	inactive
CN1CCC(NCc2cccc(-c3ccc(S(=O)(=O)NCc4ccccc4)cc3)c2)CC1	inactive	inactive
CCCCN(CCCC)c1c(C#N)cc(S(=O)(=O)Nc2ccccc2)cc1C#N	inactive	inactive

Other lines, results leading:

inhibition [1]	inhibition [2]	Compound
inactive	inactive	COc1ccc(N(CCc2cccc(C)n2)C(C)=O)cc1
inactive	inactive	COC(=O)Nc1nc2cc(C(=O)c3ccccc3)ccc2[nH]1
inactive	inactive	Cc1ccc(-c2nc(CN(Cc3ccccn3)C(C)C)cs2)o1
inactive	inactive	COc1ccc(Nc2ccccc2NC(=O)c2ccc(O)nc2)cc1
inactive	inactive	COc1ccc(-c2nn(C(C)C)c3ncnc(N)c23)cc1OC
inactive	inactive	C[C@H](c1ccc2c(c1)CCCC2)N(C)c1ncc2c(N)nc(N)nc2n1
inactive	inactive	CCc1nc2ccccc2n1CC(O)COc1cc(C)ccc1Cl (centres undefined)
inactive	inactive	Cc1ccc(NC(=O)CC2COc3ccccc3O2)cc1Cl (centres undefined)
inactive	inactive	CC1=Nc2ccc(Cl)cc2C(O)(c2ccc(C)cc2)N1CCN1CCCCC1 (centres undefined)
inactive	inactive	Cc1c[nH]c(CCNC(=O)c2cc(-c3ccc(Cl)cc3)cs2)n1
inactive	inactive	CCN(CC)S(=O)(=O)c1ccc(C(=O)Nc2cc(C)nn2-c2nc(C)c(C)c(=O)[nH]2)cc1
inactive	inactive	Brc1cncc(-c2cc(NCCCn3ccnc3)nc(-c3ccccc3)n2)c1
inactive	inactive	COc1ccc(OC)c(NCc2ccc3nc(N)nc(N)c3c2Cl)c1
inactive	inactive	COc1ccc(C2=NCCN2)cc1-c1cn(-c2cccc(C3=NCCN3)c2)nn1
inactive	inactive	CCOc1ccccc1C(=O)Nc1cccc(-c2nc3ncccn3c2C)c1
inactive	inactive	COCC(C)NC(=O)CSc1ncnc2sc(-c3ccccc3)cc12 (centres undefined)
inactive	inactive	C[C@H](C(N)=O)N1CCCC[C@@H]1c1ccc(OCc2cccc(F)c2)cc1
inactive	inactive	c1cncc(NCc2ccc(-c3cc4ccncc4cc3OC3CCNCC3)s2)c1

inhibition [1]	inhibition [2]	Compound
inactive	inactive	CC1=Nc2ccc(Cl)cc2C(c2ccccc2)N1CCNC(=O)CN(C)C (centres undefined)
inactive	inactive	FC(F)(F)c1cccc(-c2nc3c(NCc4ccncc4)nccc3[nH]2)c1
inactive	inactive	CCCCc1ccc(C(=O)Nc2nccc3ccccc23)nc1
inactive	inactive	Cc1ccc2c(c1C)NC(=O)C21NN=C(c2ccccc2)S1 (centres undefined)
inactive	inactive	CC(=O)Nc1ccc(NC(=O)c2cc(-c3cc(Cl)ccc3O)n[nH]2)cc1
inactive	inactive	Cc1nn2c(O)c3c(nc2c1-c1ccc(F)cc1)CCCC3
inactive	inactive	OCc1ccc(-c2cncc(Nc3cccc(Cl)c3)c2)cc1
inactive	inactive	COc1ccc(C2=NN(C3CCCCCC3)C(=O)[C@@H]3CC=CC[C@H]23)cc1OCCCCOc1ccc(-c2nnn[nH]2)cc1
inactive	inactive	COc1cc(-c2cc(-c3ccc(S(C)(=O)=O)cc3)cnc2N)ccc1O
inactive	inactive	CN1CCN(c2cc(-c3ccc(F)cc3)nc(-c3ccncc3)n2)CC1
inactive	inactive	CCC(Sc1nc2ccccc2o1)C(=O)Nc1nnc(C)s1 (centres undefined)
inactive	inactive	COc1ccc(S(=O)(=O)Nc2ccc(CN3CCN(C(=O)c4cccc(C#N)c4)CC3)cc2)cc1
inactive	inactive	CC(=O)N1CCN(c2ccc(Oc3ccc(Cl)cc3O)cc2)CC1
inactive	inactive	O=[N+]([O-])c1cn2c(n1)OC[C@@H](OCc1ccc(OC(F)(F)F)cc1)C2
inactive	inactive	CCN(CC)S(=O)(=O)c1ccc(Cl)c(C(=O)Nc2ccc3nc(C)sc3c2)c1
inactive	inactive	CCCn1c(CNc2ccccc2O)nc2ccccc21
inactive	inactive	O=C(Nc1ccccc1)c1ccc(-c2cc3ccncc3cc2OC2CCNCC2)s1
inactive	inactive	O=C(COc1cccc(F)c1)Nc1nc(-c2ccccn2)cs1
